“Also recorded” adds a separate entry of the source. Where two headings read alike, the source gives them in different places. Marks after values point to notes of the source that are not given here.
How the values were obtained:
[1] = Whole blood PK and whole blood/plasma partitioning after a single 1-h IV infusion of [^14C]-pevonedistat 25 mg/m^2 (part A); format: in vivo, human; conditions: for blood plasma ratio: whole blood and plasma, iv, 25 mg/m^2, single 1-h IV infusion 25 mg/m^2
Description: This was a two-part (A and B), open-label, multicenter, mass balance, distribution, metabolism, excretion (DME) study in adult patients with advanced solid tumors. […] Patients were required to stay at the part A study site for approximately 8 days or until the discharge criteria were met, with a maximum estimated confinement period of 9–14 days. Upon completion of part A, patients had the option to participate in part B at Medical Center Hungarian Defense Forces, Budapest, Hungary. […] Treatment was administered for 12 cycles or until discontinuation criteria were met.
Complete urinary and fecal output were collected for analysis of PK (urine) and total radioactivity (urine and feces) throughout the confinement period until discharge criteria were met. Bioanalytical assay methods are shown in the Supplementary Methods. […] In part B, disease assessments were conducted using radiological evaluations (computed tomography [CT] scan or magnetic resonance imaging [MRI], as clinically indicated).
Non-compartmental analysis using Phoenix™ WinNonlin® version 8.0 (Pharsight Corp., Mountain View, California, USA) was used for estimation of PK parameters for pevonedistat in whole blood, plasma, and urine and for total radioactivity in whole blood, plasma, urine, and feces. The following single-dose PK parameters were derived: maximum plasma concentration (Cmax), area under the concentration–time curve from time 0 to infinity (AUC∞), AUC from time 0 to the last quantifiable concentration (AUC0 − last), terminal disposition phase half-life (t1/2), renal clearance (CLR), clearance (CL), and volume of distribution at steady state (Vss).
PK data were summarized using descriptive statistics, and the PK and mass balance parameters described in Supplementary Table S1 were calculated by non-compartmental analysis for each individual patient. Safety was assessed in all patients who received at least one dose of pevonedistat, and TEAEs were coded according to the Medical Dictionary for Regulatory Activities (MedDRA), version 20.0. Analysis of efficacy in part B was descriptive; disease response was assessed in all patients who received at least one dose of pevonedistat, had measurable disease (per entry criteria for part B), and had at least one post-baseline disease assessment. Response assessment was done by the investigator using Response Evaluation Criteria in Solid Tumors (RECIST) version 1.1. SAS version 9.4 was used for all statistical analyses. […]
160 All samples were analyzed applying the methods described below:
After vortex mixing for at least 5 sec, the
170 Method for whole blood

[2] = Safety (TEAEs, NCI CTCAE v4.03) after single dose of [^14C]-pevonedistat (part A); format: in vivo, human; conditions: for On-study deaths, patients: part A, N = 8
Protocol: (§1) This was a two-part (A and B), open-label, multicenter, mass balance, distribution, metabolism, excretion (DME) study in adult patients with advanced solid tumors. In part A, patients received a single IV infusion of [^14C]-pevonedistat 25 mg/m^2 (containing approximately 60–85 µCi, or 2.22–3.145 MBq, of total radioactivity) at a single center (Duna Medical Center, Budapest, Hungary). Patients were required to stay at the part A study site for approximately 8 days or until the discharge criteria were met, with a maximum estimated confinement period of 9–14 days. Upon completion of part A, patients had the option to participate in part B at Medical Center Hungarian Defense Forces, Budapest, Hungary. In part B, patients received treatment in 3-week cycles with either: pevonedistat 20 mg/m^2 on days 1, 3, and 5 plus carboplatin AUC5 and paclitaxel 175 mg/m^2 on day 1; or pevonedistat 25 mg/m^2 on days 1, 3, and 5 plus docetaxel 75 mg/m^2 on day 1. Treatment was administered for 12 cycles or until discontinuation criteria were met.
(§2) Blood samples were collected for total radioactivity and PK assessments in whole blood and plasma at prespecified time points (pre dose [within 1 h before the start of the pevonedistat infusion], end of infusion, then 0.5, 1, 2, 3, 4, 8, 12, 24, 48, 72, 96, 120, 144 and 168 hours post dose). Complete urinary and fecal output were collected for analysis of PK (urine) and total radioactivity (urine and feces) throughout the confinement period until discharge criteria were met. Bioanalytical assay methods are shown in the Supplementary Methods. Safety was assessed by incidence and severity of TEAEs, vital signs, physical examinations, electrocardiograms, and clinical laboratory tests, and toxicities were graded according to the National Cancer Institute Common Terminology Criteria for Adverse Events (NCI CTCAE), version 4.03. In part B, disease assessments were conducted using radiological evaluations (computed tomography [CT] scan or magnetic resonance imaging [MRI], as clinically indicated).
PK data were summarized using descriptive statistics, and the PK and mass balance parameters described in Supplementary Table S1 were calculated by non-compartmental analysis for each individual patient. Safety was assessed in all patients who received at least one dose of pevonedistat, and TEAEs were coded according to the Medical Dictionary for Regulatory Activities (MedDRA), version 20.0. Analysis of efficacy in part B was descriptive; disease response was assessed in all patients who received at least one dose of pevonedistat, had measurable disease (per entry criteria for part B), and had at least one post-baseline disease assessment. Response assessment was done by the investigator using Response Evaluation Criteria in Solid Tumors (RECIST) version 1.1. SAS version 9.4 was used for all statistical analyses.

advanced solid tumors [3] = test: Disease response by RECIST version 1.1 (part B); format: in vivo, human; conditions: 7 patients evaluable, with carboplatin/paclitaxel or docetaxel
Protocol: as §1
as §2, with “In part B, disease assessments were conducted using radiological evaluations (computed tomography [CT] scan or magnetic resonance imaging [MRI], as clinically indicated).” left out
PK data were summarized using descriptive statistics, and the PK and mass balance parameters described in Supplementary Table S1 were calculated by non-compartmental analysis for each individual patient. […]

advanced solid tumors [4] = tested on: advanced solid tumors; design: method as in PMID 29781056; conditions: cited from earlier work
[5] = tested on: human xenograft tumors of activated B-cell (ABC) and germinal center B-cell (GCB) diffuse large B-cell lymphoma (DLBCL); design: method as in PMID 20525923; conditions: in vivo administration, mice; cited from earlier work
CYP3A = tested on: CYP3A; design: method as in PMID 30845347; conditions: in vitro; cited from earlier work
[6] = design: method as in PMID 30845347; conditions: strong and moderate CYP3A inhibitors (itraconazole); cited from earlier work
[7] = human, whole blood, single 1-hr IV infusion 25 mg/m^2, geometric mean (CV), N = 7
[8] = in combination with carboplatin plus paclitaxel

Q: For `NS(=O)(=O)OC[C@@H]1C[C@@H](n2ccc3c(N[C@H]4CCc5ccccc54)ncnc32)C[C@@H]1O` [Pevonedistat], which clearance classification ([1]; based on whole blood CL vs hepatic blood flow) is on record?
A: The clearance classification was “low clearance drug”.

Q: What about the blood plasma ratio ([1]; human, mean (SD), N = 7, read-out: Whole blood/plasma AUClast ratio) of the same compound?
A: The blood plasma ratio was 42.2.

Q: And the blood plasma ratio ([1]; human, mean (SD), N = 7, read-out: Whole blood/plasma AUC∞ ratio)?
A: Its blood plasma ratio is 40.8.

Q: And the blood plasma ratio ([1]; human, mean (SD), N = 7, read-out: Whole blood/plasma Cmax ratio)?
A: Its blood plasma ratio is 31.9.

Q: And the AUC(0-inf) [1, 7]?
A: Its AUC(0-inf) is 58600 ng·h/mL.

Q: What about the AUC(0-t) [1, 7] of the same compound?
A: The AUC(0-t) was 58500 ng·h/mL.

Q: What about the Cmax [1, 7] of the same compound?
A: Its Cmax is 6720 ng/mL.

Q: And the clearance [1, 7]?
A: Its clearance is 13.5 mL/min.

Q: What about the Vd ([1]; human, whole blood, single 1-hr IV infusion 25 mg/m^2, geometric mean (CV), N = 7, read-out: Vss) of the same compound?
A: The Vd was 9.1 L.

Q: What about the half-life ([1]; human, whole blood, single 1-hr IV infusion 25 mg/m^2, mean (SD), N = 7) of the same compound?
A: Its half-life is 13.9 h.

Q: And the “whole blood CL as share of hepatic blood flow” value ([1]; single dose 25 mg/m^2)?
A: The value was “approximately 1%”.

Q: What about the “Exposure ratio (AUC∞) of pevonedistat vs. total drug-related material” value ([1]; whole blood, single 1-h IV infusion 25 mg/m^2, mean) of the same compound?
A: The value was 0.44.

Q: And the “Back pain, Any grade” value ([2]; human, in vivo)?
A: Its value is 1 (12.5) n (%).

Q: What about the “Back pain, Grade ≥ 3” value ([2]; human, in vivo) of the same compound?
A: Its value is 0 n (%).

Q: And the “Constipation, Any grade” value ([2]; human, in vivo)?
A: The value was 1 (12.5) n (%).

Q: What about the “Constipation, Grade ≥ 3” value ([2]; human, in vivo) of the same compound?
A: The value was 0 n (%).

Q: What about the “Dizziness, Any grade” value ([2]; human, in vivo) of the same compound?
A: The value was 1 (12.5) n (%).

Q: And the “Dizziness, Grade ≥ 3” value ([2]; human, in vivo)?
A: The value was 0 n (%).

Q: What about the “Sarcoma, Any grade” value ([2]; human, in vivo) of the same compound?
A: Its value is 1 (12.5) n (%).

Q: And the “Sarcoma, Grade ≥ 3” value ([2]; human, in vivo)?
A: Its value is 1 (12.5)^a n (%).

Q: And the “Serious TEAEs, patients” value ([2]; human, in vivo)?
A: Its value is 1 (12.5) n (%).

Q: And the “Serious TEAEs: Drug-related, patients” value ([2]; human, in vivo)?
A: The value was 0 (0.0) n (%).

Q: What about the “Serious TEAEs: Resulting in study discontinuation, patients” value ([2]; human, in vivo) of the same compound?
A: The value was 0 (0.0) n (%).

Q: What about the “TEAEs: Grade ≥ 3, patients” value ([2]; human, in vivo) of the same compound?
A: Its value is 1 (12.5) n (%).

Q: And the “TEAEs: Grade ≥ 3 drug-related, patients” value ([2]; human, in vivo)?
A: Its value is 0 (0.0) n (%).

Q: And the “Urinary retention, Any grade” value ([2]; human, in vivo)?
A: Its value is 1 (12.5) n (%).

Q: What about the “Urinary retention, Grade ≥ 3” value ([2]; human, in vivo) of the same compound?
A: Its value is 0 n (%).

Q: And the “Vomiting, Any grade” value ([2]; human, in vivo)?
A: Its value is 1 (12.5) n (%).

Q: And the “Vomiting, Grade ≥ 3” value ([2]; human, in vivo)?
A: Its value is 0 n (%).

Q: And the “Serious TEAEs, patients” value ([2]; in vivo)?
A: Its value is “no serious TEAEs”.

Q: What about the “On-study deaths, patients” value [2] of the same compound?
A: Its value is “One”.

Q: And the “On-study deaths, patients” value ([2]; listed as [^14C]-pevonedistat)?
A: The value was 1 (12.5)^a n (%).

Q: And the “best response of partial response” value (advanced solid tumors [3])?
A: Its value is “One”.

Q: What about the “best response of stable disease” value (advanced solid tumors [3]) of the same compound?
A: Its value is 5 patients.

Q: And the progressive disease (advanced solid tumors [3])?
A: The progressive disease was “remaining patient”.

Q: What about the “maximum tolerated dose (MTD)” value (advanced solid tumors [4]; [8]) of the same compound?
A: The value was 20 mg/m^2.

Q: What about the “overall response rate [ORR]” value (advanced solid tumors [4]; [8]) of the same compound?
A: The value was 35%.

Q: What about the “maximum tolerated dose (MTD)” value (advanced solid tumors [4]; in combination with docetaxel) of the same compound?
A: The value was 25 mg/m^2.

Q: What about the “overall response rate [ORR]” value (advanced solid tumors [4]; in combination with docetaxel) of the same compound?
A: Its value is 16%.

Q: And the tumor growth [5]?
A: Its tumor growth is “complete tumor growth inhibition”.

Q: And the “role of CYP3A in metabolism” value (CYP3A)?
A: The value was “substrate of CYP3A; also recorded: major role for CYP3A”.

Q: And the “effect of CYP3A inhibitors on pevonedistat exposure” value [6]?
A: Its value is “did not indicate clinically meaningful alterations in its PK; also recorded: did not result in clinically meaningful increases in pevonedistat exposure”.
